Patent publication US9522888B2, “Substituted bicyclic compounds” (BRISTOL-MYERS SQUIBB COMPANY, priority 2014, dated 2016)

The compounds below were run against human S1P1 (Homo sapiens (Human), UniProt P21453) (assay: S1P1 binding assay (33P-S1P radioligand competition, CHO cell membranes)). Settings: phosphate examples; read-out: S1P1 Binding.
Procedure, shortened: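 Radioligand is 33P-S1P, competing for membranes from human S1P1-expressing CHO cells. Membranes resuspended in 50 mM HEPES pH 7.5, 100 mM NaCl, 1 mM MgCl2, 2 mM EDTA.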

human S1P1, sequence (P21453 whole entry): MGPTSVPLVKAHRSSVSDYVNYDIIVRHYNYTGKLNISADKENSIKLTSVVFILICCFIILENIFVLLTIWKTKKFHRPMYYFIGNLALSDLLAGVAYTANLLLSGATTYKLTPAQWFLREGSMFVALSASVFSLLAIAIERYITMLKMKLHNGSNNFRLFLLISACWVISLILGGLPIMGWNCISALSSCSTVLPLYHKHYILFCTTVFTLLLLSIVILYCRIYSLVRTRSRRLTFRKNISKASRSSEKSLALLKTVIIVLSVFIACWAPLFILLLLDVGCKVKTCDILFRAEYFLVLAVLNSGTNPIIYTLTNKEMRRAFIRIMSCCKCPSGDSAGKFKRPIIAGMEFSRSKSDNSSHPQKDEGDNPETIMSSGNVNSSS

`CC(C)CCOC[C@@H]1CCc2cc([C@H]3CC[C@](N)(COP(=O)(O)O)C3)ccc2C1` [compound 457] and `CC(C)CCSC[C@@H]1CCc2cc([C@H]3CC[C@](N)(COP(=O)(O)O)C3)ccc2C1` [compound 510] cannot be ordered by IC50: < 0.01 µM for the first, < 0.01 µM for the second.

Compared with `CC(C)Oc1cccc(C[C@@H]2CCc3cc([C@H]4CC[C@](N)(COP(=O)(O)O)C4)ccc3C2)c1` [compound 560], `CN(C)Cc1cccc(OC[C@@H]2CCc3cc([C@H]4CC[C@](N)(COP(=O)(O)O)C4)ccc3C2)c1` [compound 490] is lower in IC50: 0.01 to 0.1 µM for the first, < 0.01 µM for the second.

First: N[C@]1(COP(=O)(O)O)CC[C@H](c2ccc3c(c2)CC[C@@H](COCc2cccs2)C3)C1 [compound 472]
Second: CCCSC[C@@H]1CCc2cc([C@H]3CC[C@](N)(COP(=O)(O)O)C3)ccc2C1 [compound 503]
The IC50 of the first is higher: 0.1 to 1 µM for the first, < 0.01 µM for the second.

`CCCCSC[C@@H]1CCc2cc([C@@H]3CC[C@](N)(COP(=O)(O)O)C3)ccc2C1` [compound 506] and `CCCCCSC[C@H]1CCc2cc([C@H]3CC[C@](N)(COP(=O)(O)O)C3)ccc2C1` [compound 512] cannot be ordered by IC50: < 0.01 µM for the first, < 0.01 µM for the second.

First: N[C@]1(COP(=O)(O)O)CC[C@H](c2ccc3c(c2)CC[C@@H](CSCCc2ccccn2)C3)C1 [compound 524]
Second: CCCCCCC[C@H]1Cc2ccc([C@H]3CC[C@](N)(COP(=O)(O)O)C3)cc2CO1 [compound 428]
The IC50 of the first is higher: 0.01 to 0.1 µM for the first, < 0.01 µM for the second. The second is the more potent here.

The compounds below were run against S1P1 (membranes prepared from S1P1/CHO cells) (Homo sapiens (Human), UniProt P21453) (assay: Receptor [35S] GTPγS binding assay (S1P1 GTPγS)). Settings: phosphate examples; read-out: S1P1 GTPγS.
S1P1 (membranes prepared from S1P1/CHO cells), sequence (P21453 whole entry): as above
Format: biochemical
Procedure, shortened: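 Agonist-stimulated [35S]GTPγS binding (0.2 nM final) to S1P1/CHO membranes, 3 μg protein/well, measured after 45 min at room temperature. Buffer contained 10 μM GDP, saponin and fatty-acid-free BSA at pH 7.5. Compounds tested as 11-point 3-fold series; bound label captured on filters, scintillation-counted, EC50 reported.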

`CC(C)CCOC[C@@H]1CCc2cc([C@H]3CC[C@](N)(COP(=O)(O)O)C3)ccc2C1` [compound 457] and `CC(C)CCSC[C@@H]1CCc2cc([C@H]3CC[C@](N)(COP(=O)(O)O)C3)ccc2C1` [compound 510] fall in the same range of EC50: 0.01 to 0.1 µM for the first, 0.01 to 0.1 µM for the second.

First: CC(C)Oc1cccc(C[C@@H]2CCc3cc([C@H]4CC[C@](N)(COP(=O)(O)O)C4)ccc3C2)c1 [compound 560]
Second: CN(C)Cc1cccc(OC[C@@H]2CCc3cc([C@H]4CC[C@](N)(COP(=O)(O)O)C4)ccc3C2)c1 [compound 490]
The EC50 of the first is lower: < 0.01 µM for the first, 0.1 to 1 µM for the second.

First: N[C@]1(COP(=O)(O)O)CC[C@H](c2ccc3c(c2)CC[C@@H](COCc2cccs2)C3)C1 [compound 472]
Second: CCCSC[C@@H]1CCc2cc([C@H]3CC[C@](N)(COP(=O)(O)O)C3)ccc2C1 [compound 503]
The EC50 of the first is higher: 0.1 to 1 µM for the first, < 0.01 µM for the second. The second is the more potent here.

`CCCCSC[C@@H]1CCc2cc([C@@H]3CC[C@](N)(COP(=O)(O)O)C3)ccc2C1` [compound 506] and `CCCCCSC[C@H]1CCc2cc([C@H]3CC[C@](N)(COP(=O)(O)O)C3)ccc2C1` [compound 512] cannot be ordered by EC50: < 0.01 µM for the first, < 0.01 µM for the second.

`N[C@]1(COP(=O)(O)O)CC[C@H](c2ccc3c(c2)CC[C@@H](CSCCc2ccccn2)C3)C1` [compound 524] and `CCCCCCC[C@H]1Cc2ccc([C@H]3CC[C@](N)(COP(=O)(O)O)C3)cc2CO1` [compound 428] cannot be ordered by EC50: < 0.01 µM for the first, < 0.01 µM for the second.

These compounds were tested against S1P3 (membranes prepared from EDG3-Gal5-bla HEK293T cells) (Homo sapiens (Human), UniProt Q99500) (assay: Receptor [35S] GTPγS binding assay (S1P3 GTPγS)). Settings: phosphate examples; read-out: S1P3 GTPγS.
S1P3 (membranes prepared from EDG3-Gal5-bla HEK293T cells), sequence (Q99500 whole entry): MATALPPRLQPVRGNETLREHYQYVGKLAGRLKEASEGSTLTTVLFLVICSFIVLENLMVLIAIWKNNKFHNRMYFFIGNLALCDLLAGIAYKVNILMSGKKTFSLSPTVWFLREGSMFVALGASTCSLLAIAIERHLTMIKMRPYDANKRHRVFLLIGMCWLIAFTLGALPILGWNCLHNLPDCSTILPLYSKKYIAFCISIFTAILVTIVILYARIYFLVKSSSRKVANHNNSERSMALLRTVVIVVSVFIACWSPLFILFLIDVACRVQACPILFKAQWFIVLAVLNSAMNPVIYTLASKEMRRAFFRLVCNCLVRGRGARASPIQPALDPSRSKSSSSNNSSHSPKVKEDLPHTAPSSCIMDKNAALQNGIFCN
Format: biochemical
Procedure, shortened: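 Membranes (3 μg protein/well) from S1P1/CHO cells or EDG3-Gal5-bla HEK293T cells (S1P3) were incubated 45 min at room temperature with 0.2 nM final [35S]GTPγS in HEPES pH 7.5 buffer with 10 μM GDP, MgCl2 and saponin. Bound label counted after filtration; EC50 from 11-point, 3-fold dilutions.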

`CC(C)CCOC[C@@H]1CCc2cc([C@H]3CC[C@](N)(COP(=O)(O)O)C3)ccc2C1` [compound 457] and `CC(C)CCSC[C@@H]1CCc2cc([C@H]3CC[C@](N)(COP(=O)(O)O)C3)ccc2C1` [compound 510] cannot be ordered by EC50: > 0.625 µM for the first, > 0.625 µM for the second.

`CC(C)Oc1cccc(C[C@@H]2CCc3cc([C@H]4CC[C@](N)(COP(=O)(O)O)C4)ccc3C2)c1` [compound 560] and `CN(C)Cc1cccc(OC[C@@H]2CCc3cc([C@H]4CC[C@](N)(COP(=O)(O)O)C4)ccc3C2)c1` [compound 490] cannot be ordered by EC50: > 0.625 µM for the first, > 0.625 µM for the second.

`N[C@]1(COP(=O)(O)O)CC[C@H](c2ccc3c(c2)CC[C@@H](COCc2cccs2)C3)C1` [compound 472] and `CCCSC[C@@H]1CCc2cc([C@H]3CC[C@](N)(COP(=O)(O)O)C3)ccc2C1` [compound 503] cannot be ordered by EC50: > 0.625 µM for the first, > 0.625 µM for the second.

`CCCCSC[C@@H]1CCc2cc([C@@H]3CC[C@](N)(COP(=O)(O)O)C3)ccc2C1` [compound 506] and `CCCCCSC[C@H]1CCc2cc([C@H]3CC[C@](N)(COP(=O)(O)O)C3)ccc2C1` [compound 512] cannot be ordered by EC50: > 0.625 µM for the first, > 0.625 µM for the second.

`N[C@]1(COP(=O)(O)O)CC[C@H](c2ccc3c(c2)CC[C@@H](CSCCc2ccccn2)C3)C1` [compound 524] and `CCCCCCC[C@H]1Cc2ccc([C@H]3CC[C@](N)(COP(=O)(O)O)C3)cc2CO1` [compound 428] cannot be ordered by EC50: > 0.625 µM for the first, > 0.625 µM for the second.

The compounds below were run against hS1P1/CHO cells (Homo sapiens (Human), UniProt P21453) (assay: hS1P1 ERK phosphorylation (S1P1 pERK)). Settings: phosphate examples.
hS1P1/CHO cells, sequence (P21453 whole entry): as the sequence (P21453 whole entry) above
Format: cell-based
Description: hS1P1 ERK Phosphorylation (S1P1 pERK)
hS1P1/CHO cells were plated into BD Amine 384-well plates the day before the assay. On the day of the assay, growth medium was removed and replaced with serum-free medium (Ham's F-12 Invitrogen) and incubated for 2 hours. Test compounds pre-diluted in HBSS (Gibco)/20 mM HEPES (Gibco) were transferred to the cell plates and incubated for 7 minutes at 37° C. Cells were lysed in lysis buffer (Perkin Elmer) and phospho-ERK was measured using the SureFire pERK kit (Perkin Elmer) as described by the manufacturer. Data was plotted as percentage activation of the test compound relative to the efficacy of 10 μM S1P.

`CC(C)CCOC[C@@H]1CCc2cc([C@H]3CC[C@](N)(COP(=O)(O)O)C3)ccc2C1` [compound 457] and `CC(C)CCSC[C@@H]1CCc2cc([C@H]3CC[C@](N)(COP(=O)(O)O)C3)ccc2C1` [compound 510] cannot be ordered by EC50: < 0.01 µM for the first, < 0.01 µM for the second.

First: CC(C)Oc1cccc(C[C@@H]2CCc3cc([C@H]4CC[C@](N)(COP(=O)(O)O)C4)ccc3C2)c1 [compound 560]
Second: CN(C)Cc1cccc(OC[C@@H]2CCc3cc([C@H]4CC[C@](N)(COP(=O)(O)O)C4)ccc3C2)c1 [compound 490]
The EC50 of the first is lower: < 0.01 µM for the first, 0.01 to 0.1 µM for the second.

`N[C@]1(COP(=O)(O)O)CC[C@H](c2ccc3c(c2)CC[C@@H](COCc2cccs2)C3)C1` [compound 472] and `CCCSC[C@@H]1CCc2cc([C@H]3CC[C@](N)(COP(=O)(O)O)C3)ccc2C1` [compound 503] cannot be ordered by EC50: < 0.01 µM for the first, < 0.01 µM for the second.

First: CCCCSC[C@@H]1CCc2cc([C@@H]3CC[C@](N)(COP(=O)(O)O)C3)ccc2C1 [compound 506]
Second: CCCCCSC[C@H]1CCc2cc([C@H]3CC[C@](N)(COP(=O)(O)O)C3)ccc2C1 [compound 512]
The EC50 of the first is lower: < 0.01 µM for the first, 0.01 to 0.1 µM for the second.

First: N[C@]1(COP(=O)(O)O)CC[C@H](c2ccc3c(c2)CC[C@@H](CSCCc2ccccn2)C3)C1 [compound 524]
Second: CCCCCCC[C@H]1Cc2ccc([C@H]3CC[C@](N)(COP(=O)(O)O)C3)cc2CO1 [compound 428]
The EC50 of the first is lower: < 0.01 µM for the first, 0.01 to 0.1 µM for the second.
